Experimental data reported in PubChem BioAssay (NCI).
Several values for one entry are separate records, joined by “and”; a condition that tells them apart may be missing. Equal entries are not always repeated.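 Five concentrations, 48 hours, 96-well plates. GI50 marks 50% less growth. Definition used: TGI = concentration required for complete inhibition of growth.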

Assays:
Assay in all cases: DTP human tumour cell line panel, 48 h
[1] = tested on: K-562 leukemia
[2] = tested on: SR leukemia
[3] = tested on: UACC-257 melanoma
[4] = tested on: BT-549 breast
[5] = tested on: DU-145 prostate
[6] = tested on: HS 578T breast
[7] = tested on: MDA-MB-231 breast
[8] = tested on: NCI/ADR-RES ovarian
[9] = tested on: PC-3 prostate
[10] = tested on: SK-OV-3 ovarian

| Compound | TGI [1] | TGI [2] | TGI [3] [µM] | TGI [6] [µM] | GI50 [1] | GI50 [7] [µM] | TGI [7] [µM] | GI50 [8] [µM] | TGI [10] [µM] | further results |
| --- | --- | --- | --- | --- | --- | --- | --- | --- | --- | --- |
| O=C(O)c1c([N+](=O)[O-])cc(C(F)(F)F)cc1[N+](=O)[O-] | > 100 µM | > 100 µM | > 100 | – | – | – | – | – | – | – |
| COc1cccc2c1C(=O)c1c(O)c3c(c(O)c1C2=O)C[C@@](O)(C(=O)CO)C[C@@H]3OC1CC(OC(C)=O)C(OC(C)=O)C(C)O1 (some centres undefined) | – | – | 4.25 | 4.14 | 0.868 µM | 2.89 | 15.6 | 0.552 | 6.5 | GI50 [4]: 0.386 µM; TGI [4]: 4.29 µM; GI50 [5]: 0.12 µM; TGI [5]: 0.719 µM; GI50 [9]: 1.48 µM; TGI [9]: > 23.3 µM; GI50 [10]: 0.83 µM; GI50 [3]: 1.37 µM |
| O=C(N[C@@H]1C=CCC[C@@H]1c1ccccc1)OCc1ccccc1 | > 100 µM | 41.7 µM | 35.2 | – | – | – | – | – | > 100 | – |
| CSc1c(S(C)=O)[nH]c2cc(Br)cc(Br)c12 (centres undefined) | 72.3 µM | – | > 100 | – | – | – | – | – | 61.9 | – |
| O=c1c2cc(Br)ccc2nc(-c2ccccc2)n1NCC1(O)OCC(O)C(O)C1O (centres undefined) | > 100 µM | > 100 µM | > 100 | – | – | – | – | – | > 100 | – |
| CN(C)CCNC(=O)c1cccc2ccc(-c3cccnc3)nc12 | > 100 µM | – | 15 | – | – | – | – | – | 36.9 | – |
| COc1ccc(N2CCN(CN3CCN(c4ccc(OC)cc4)C3)C2)cc1 | 52.7 µM | – | > 100 | > 100 | 27.8 µM | > 100 | > 100 | > 100 | > 100 | GI50 [4]: 79.7 µM; TGI [4]: > 100 µM; GI50 [5]: 79.7 µM; TGI [5]: > 100 µM; GI50 [6]: > 100 µM; TGI [8]: > 100 µM; GI50 [9]: > 100 µM; TGI [9]: > 100 µM; GI50 [10]: > 100 µM; GI50 [3]: > 100 µM |
| O=C(c1ccccn1)c1nc(-c2ccc(Cl)c(Cl)c2)nc2ccc(Cl)cc12 | > 100 µM | – | > 100 | – | – | – | – | – | > 100 | – |
| CCCCNC(=O)OCC(COc1ccccc1OC)OC(=O)NCCCC (centres undefined) | > 100 µM | – | > 100 | – | – | – | – | – | > 100 | – |
| COc1ccc(OC)c(/C=C/C(=O)C(C)(C)C)c1 | 55.8 µM | – | – | – | – | – | – | – | 90.4 | – |
| CC(C)[C@H]1CO[C@@H]2O[C@H](C)CC(=O)N21 | > 100 µM | > 100 µM | > 100 | – | – | – | – | – | > 100 | – |
| O=C1NC2(CCCC2)/C(=N\O)C12CCCC2 | > 100 µM | > 100 µM | > 100 | – | – | – | – | – | > 100 | – |
| COc1cc(-c2nc(-c3nnc(-c4ccc(F)c(Cl)c4)o3)c3ccccn23)cc(OC)c1OC | > 100 µM | – | – | 29.2 | 4.34 µM | 2.15 | 14.7 | 1.88 | – | GI50 [4]: 1.67 µM; TGI [4]: 4.46 µM; GI50 [6]: 2.51 µM; TGI [8]: 5.24 µM |
| C=CC1(c2ccccc2Cl)N/C(=C/OCC)CO1 (centres undefined) | > 100 µM | > 100 µM | > 100 | – | – | – | – | – | > 100 | – |
| CCOC(=O)C1(Br)C(c2ccccc2)NC(=O)N(C2OC(COC(=O)c3ccccc3)C(OC(=O)c3ccccc3)C2OC(=O)c2ccccc2)C1(C)Br (centres undefined) | 19.3 µM | – | 52.4 | – | – | – | – | – | > 100 | – |
| O=c1c2[nH]c3ccccc3c2nc2n1CCS2 | > 100 µM | – | > 100 | > 100 | > 100 µM | > 100 | > 100 | > 100 | > 100 | GI50 [5]: > 100 µM; TGI [5]: > 100 µM; GI50 [6]: 26.9 µM; TGI [8]: > 100 µM; GI50 [9]: 47.8 µM; TGI [9]: > 100 µM; GI50 [10]: > 100 µM; GI50 [3]: > 100 µM |
| NC(=S)N/N=C1\C(=O)N(CCc2ccccc2)C(=O)C1C(=O)NCCc1ccccc1 (centres undefined) | > 100 µM | – | > 100 | – | – | – | – | – | > 100 | – |
| NCCn1ccc(NC(c2ccccc2)(c2ccccc2)c2ccccc2)nc1=O | 44.9 µM | 46.2 µM | 36.2 | – | – | – | – | – | – | – |
| O=[N+]([O-])c1cccc(/C=C/c2ccccn2)c1 | > 100 µM | > 100 µM | > 100 | > 100 | 41.2 µM | 23 | > 100 | 22.9 | > 100 | GI50 [5]: 35.6 µM; TGI [5]: > 100 µM; GI50 [6]: 32.7 µM; TGI [8]: > 100 µM; GI50 [9]: 29.1 µM; TGI [9]: > 100 µM; GI50 [10]: 33.6 µM; GI50 [2]: 51.6 µM; GI50 [3]: > 100 µM |
| COc1cc(OC)cc(-c2ccc(-c3ccc(C(=N)N)s3)s2)c1 | 1.11 µM and 0.441 µM | 0.918 µM and 0.598 µM | 3.36 | 3.22 | 0.346 µM and 0.178 µM | 0.8 | 2.62 | 1.75 | – | GI50 [5]: 1.31 µM; TGI [5]: 2.77 µM; GI50 [6]: 1.35 µM; TGI [8]: 3.58 µM; GI50 [9]: 1.42 µM; TGI [9]: 2.93 µM; GI50 [2]: 0.331 µM and 0.244 µM; GI50 [3]: 1.77 µM |
